Experimental data from the supplement of paper PMC11208160.

Assay: recombinant barcode read abundance after kanamycin selection (control-corrected) (log10(CPM+1)); higher = more efficient recombination; sequences stand for … in AGTGCAGAGAAAATCGGCCAGTTTTCTCTGCCTGCAGTCCGCATGCCGT…AGATTTATGCAGCGGACTGCCTTTCTCCCAAAGTGATAAACCGGACAGTATCATGGACCGGTTTTCCCGGTAATCCGTATTTGCAAGGTTGGTTTCACT; site = the 11-nt target
Method in brief: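 Pooled E. coli screen pairing targets with IS621 bridge RNA target-binding loops. Each oligo (promoter, target, barcode, J23119-driven first 104 bridge RNA bases) was Gibson-cloned into a vector with the remaining 73 bp and T7-inducible recombinase, then co-electroporated with a donor plasmid. Two replicates each were plated on chloramphenicol/ampicillin LB agar (control) or chloramphenicol/ampicillin/kanamycin with 0.1 mM IPTG. Recombination efficiency is recombinant-junction barcode counts as CPM, averaged, control-corrected, reported as log10(CPM+1).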
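Note: IS621 recombinase and bridge RNA in Escherichia coli cells.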

Compared with “CCGAAGACTTGGGTTCTAACCTGTTGCCT (site CCGAAGACTAG)”, “CCGAAGACTTGGGTTCTAACCTGTTGCCT (site TCGAAGACTTG)” is higher in “recombinant barcode read abundance (log10)” value: 0.112 for the first, 0.492 for the second.

“CCGACTCCTTGGGTTCTAACCTGTTGCCT (site CCGAATCCTAG)” and “CCGACTCCTTGGGTTCTAACCTGTTGCCT (site CCGACTCCTAG)” are within 0.2 log units of each other in “recombinant barcode read abundance (log10)” value: 0.0273 for the first, 0.13 for the second.

“CCGACTCCTTGGGTTCTAACCTGTTGCCT (site CCGAGTCCTAG)” and “CCGACTCCTTGGGTTCTAACCTGTTGCCT (site CCGATTCCTAG)” are within 0.2 log units of each other in “recombinant barcode read abundance (log10)” value: 0 for the first, 0.102 for the second.

“CCGATTCCTTGGGTTCTAACCTGTTGCCT (site CCGAATCCTAG)” and “CCGATTCCTTGGGTTCTAACCTGTTGCCT (site CCGACTCCTAG)” are within 0.2 log units of each other in “recombinant barcode read abundance (log10)” value: 0.153 for the first, 0.171 for the second.

“CCGATTCCTTGGGTTCTAACCTGTTGCCT (site CCGAGTCCTAG)” and “CCGATTCCTTGGGTTCTAACCTGTTGCCT (site CCGATTCCTAG)” are within 0.2 log units of each other in “recombinant barcode read abundance (log10)” value: 0.0319 for the first, 0.217 for the second.

Compared with “CCGCAGCCTTGGGTTCTAACCTGTTGCCT (site CCGAAGCCTAG)”, “CCGCAGCCTTGGGTTCTAACCTGTTGCCT (site CCGCAGCCTAG)” is higher in “recombinant barcode read abundance (log10)” value: 0.0264 for the first, 1.59 for the second.

“CCGCAGCCTTGGGTTCTAACCTGTTGCCT (site CCGGAGCCTAG)” and “CCGCAGCCTTGGGTTCTAACCTGTTGCCT (site CCGTAGCCTAG)” are within 0.2 log units of each other in “recombinant barcode read abundance (log10)” value: 0.177 for the first, 0.0447 for the second.

“CCGCCAGCTTGGGTTCTAACCTGTTGCCT (site CCGCCAGCTAG)” and “CCGCCAGCTTGGGTTCTAACCTGTTGCCT (site CCGCCCGCTAG)” are within 0.2 log units of each other in “recombinant barcode read abundance (log10)” value: 0.171 for the first, 0.0231 for the second.

“CCGCCAGCTTGGGTTCTAACCTGTTGCCT (site CCGCCGGCTAG)” and “CCGCCAGCTTGGGTTCTAACCTGTTGCCT (site CCGCCTGCTAG)” are within 0.2 log units of each other in “recombinant barcode read abundance (log10)” value: 0.0999 for the first, 0.186 for the second.

Going from “CCGCCCGCTTGGGTTCTAACCTGTTGCCT (site CCGCCAGCTAG)” to “CCGCCCGCTTGGGTTCTAACCTGTTGCCT (site CCGCCCGCTAG)”, the “recombinant barcode read abundance (log10)” value rises from 0.00972 to 0.473.

“CCGCCCGCTTGGGTTCTAACCTGTTGCCT (site CCGCCGGCTAG)” and “CCGCCCGCTTGGGTTCTAACCTGTTGCCT (site CCGCCTGCTAG)” are within 0.2 log units of each other in “recombinant barcode read abundance (log10)” value: 0.083 for the first, 0.0828 for the second.

Compared with “CCGCCCTCTTGGGTTCTAACCTGTTGCCT (site CAGCCCTCTAG)”, “CCGCCCTCTTGGGTTCTAACCTGTTGCCT (site CCGCCCTCTAG)” is higher in “recombinant barcode read abundance (log10)” value: 0.0642 for the first, 1.04 for the second.

“CCGCCCTCTTGGGTTCTAACCTGTTGCCT (site CGGCCCTCTAG)” and “CCGCCCTCTTGGGTTCTAACCTGTTGCCT (site CTGCCCTCTAG)” are within 0.2 log units of each other in “recombinant barcode read abundance (log10)” value: 0.105 for the first, 0.0291 for the second.

First: CCGCCTCCTTGGGTTCTAACCTGTTGCGA (site CCGCCTCCTTC)
Second: CCGCCTCCTTGGGTTCTAACCTGTTGCGA (site CCGCGTCCTTA)
The “recombinant barcode read abundance (log10)” value of the first is higher: 0.616 for the first, 0.0484 for the second.

First: CCGCGCCCTTGGGTTCTAACCTGTTGCAT (site ACGCGCCCTGT)
Second: CCGCGCCCTTGGGTTCTAACCTGTTGCAT (site CCGCGCCCTAT)
The “recombinant barcode read abundance (log10)” value of the first is lower: 0.0166 for the first, 0.504 for the second.

Going from “CCGCGCTCTTGGGTTCTAACCTGTTGCCT (site CCGCGCACTAG)” to “CCGCGCTCTTGGGTTCTAACCTGTTGCCT (site CCGCGCTCTAG)”, the “recombinant barcode read abundance (log10)” value rises from 0.106 to 0.641.

Compared with “CCGCGCTCTTGGGTTCTAACCTGTTGCTG (site ACGAGCTCTCA)”, “CCGCGCTCTTGGGTTCTAACCTGTTGCTG (site CCGCGCTCTCA)” is higher in “recombinant barcode read abundance (log10)” value: 0 for the first, 0.379 for the second.

Compared with “CCGCGGCCTTGGGTTCTAACCTGTTGCCT (site ACGCGGCCTAG)”, “CCGCGGCCTTGGGTTCTAACCTGTTGCCT (site CCGCGGCCTAG)” is higher in “recombinant barcode read abundance (log10)” value: 0.0555 for the first, 0.459 for the second.

“CCGCGGCCTTGGGTTCTAACCTGTTGCCT (site GCGCGGCCTAG)” and “CCGCGGCCTTGGGTTCTAACCTGTTGCCT (site TCGCGGCCTAG)” are within 0.2 log units of each other in “recombinant barcode read abundance (log10)” value: 0.0271 for the first, 0.0221 for the second.

Compared with “CCGCTACCTTGGGTTCTAACCTGTTGCCT (site CAGCTACCTAG)”, “CCGCTACCTTGGGTTCTAACCTGTTGCCT (site CCGCTACCTAG)” is higher in “recombinant barcode read abundance (log10)” value: 0.109 for the first, 0.956 for the second.

“CCGCTACCTTGGGTTCTAACCTGTTGCCT (site CGGCTACCTAG)” and “CCGCTACCTTGGGTTCTAACCTGTTGCCT (site CTGCTACCTAG)” are within 0.2 log units of each other in “recombinant barcode read abundance (log10)” value: 0.103 for the first, 0.19 for the second.

Compared with “CCGCTGTCTTGGGTTCTAACCTGTTGCCT (site CCGCTGTCTAG)”, “CCGCTGTCTTGGGTTCTAACCTGTTGCCT (site CCTCTGGCTAG)” is lower in “recombinant barcode read abundance (log10)” value: 0.394 for the first, 0.167 for the second.

Compared with “CCGGACCCTTGGGTTCTAACCTGTTGCTG (site CCGGACCCTCA)”, “CCGGACCCTTGGGTTCTAACCTGTTGCTG (site CCGTGCCCTCA)” is lower in “recombinant barcode read abundance (log10)” value: 2.49 for the first, 0.336 for the second.

“CCGGATGCTTGGGTTCTAACCTGTTGCCT (site CCGAATGCTAG)” and “CCGGATGCTTGGGTTCTAACCTGTTGCCT (site CCGCATGCTAG)” are within 0.2 log units of each other in “recombinant barcode read abundance (log10)” value: 0.272 for the first, 0.117 for the second.

First: CCGGATGCTTGGGTTCTAACCTGTTGCCT (site CCGGATGCTAG)
Second: CCGGATGCTTGGGTTCTAACCTGTTGCCT (site CCGTATGCTAG)
The “recombinant barcode read abundance (log10)” value of the first is higher: 0.775 for the first, 0.0746 for the second.

First: CCGGATTCTTGGGTTCTAACCTGTTGCCT (site CCGGATTCTAG)
Second: CCGGATTCTTGGGTTCTAACCTGTTGCCT (site CCGGTTGCTAG)
The “recombinant barcode read abundance (log10)” value of the first is higher: 1.69 for the first, 0.369 for the second.

Compared with “CCGGTAACTTGGGTTCTAACCTGTTGCCT (site CCGGTAACTAG)”, “CCGGTAACTTGGGTTCTAACCTGTTGCCT (site CCTGTAGCTAG)” is lower in “recombinant barcode read abundance (log10)” value: 0.45 for the first, 0.142 for the second.

“CCGGTAGCTTGGGTTCTAACCTGTTGCCA (site CCGGTAGCTTG)” and “CCGGTAGCTTGGGTTCTAACCTGTTGCCA (site GCAGTAGCTTG)” are within 0.2 log units of each other in “recombinant barcode read abundance (log10)” value: 0.443 for the first, 0.556 for the second.

Going from “CCGGTATCTTGGGTTCTAACCTGTTGCCT (site CCGATATCTAG)” to “CCGGTATCTTGGGTTCTAACCTGTTGCCT (site CCGCTATCTAG)”, the “recombinant barcode read abundance (log10)” value rises from 0.0308 to 0.688.

“CCGGTATCTTGGGTTCTAACCTGTTGCCT (site CCGGTATCTAG)” and “CCGGTATCTTGGGTTCTAACCTGTTGCCT (site CCGTTATCTAG)” are within 0.2 log units of each other in “recombinant barcode read abundance (log10)” value: 0.197 for the first, 0.0727 for the second.

Compared with “CCGGTGCCTTGGGTTCTAACCTGTTGCCT (site CAGGTGCCTAG)”, “CCGGTGCCTTGGGTTCTAACCTGTTGCCT (site CCGGTGCCTAG)” is higher in “recombinant barcode read abundance (log10)” value: 0.0703 for the first, 2.29 for the second.

Going from “CCGGTGCCTTGGGTTCTAACCTGTTGCCT (site CGGGTGCCTAG)” to “CCGGTGCCTTGGGTTCTAACCTGTTGCCT (site CTGGTGCCTAG)”, the “recombinant barcode read abundance (log10)” value falls from 1.03 to 0.21.

“CCGTAAGCTTGGGTTCTAACCTGTTGCCT (site CCGTAAACTAG)” and “CCGTAAGCTTGGGTTCTAACCTGTTGCCT (site CCGTAACCTAG)” are within 0.2 log units of each other in “recombinant barcode read abundance (log10)” value: 0.139 for the first, 0.0711 for the second.

“CCGTAAGCTTGGGTTCTAACCTGTTGCCT (site CCGTAAGCTAG)” and “CCGTAAGCTTGGGTTCTAACCTGTTGCCT (site CCGTAATCTAG)” are within 0.2 log units of each other in “recombinant barcode read abundance (log10)” value: 0.105 for the first, 0.0655 for the second.

Compared with “CCGTACTCTTGGGTTCTAACCTGTTGCCT (site CCGTACTCTAG)”, “CCGTACTCTTGGGTTCTAACCTGTTGCCT (site CCGTAGTCTAG)” is lower in “recombinant barcode read abundance (log10)” value: 1.22 for the first, 0.0897 for the second.

“CCGTCTACTTGGGTTCTAACCTGTTGCCT (site CAGTCTACTAG)” and “CCGTCTACTTGGGTTCTAACCTGTTGCCT (site CCGTCTACTAG)” are within 0.2 log units of each other in “recombinant barcode read abundance (log10)” value: 0.0408 for the first, 0.0187 for the second.

“CCGTCTACTTGGGTTCTAACCTGTTGCCT (site CGGTCTACTAG)” and “CCGTCTACTTGGGTTCTAACCTGTTGCCT (site CTGTCTACTAG)” are within 0.2 log units of each other in “recombinant barcode read abundance (log10)” value: 0.0454 for the first, 0.082 for the second.

“CCGTCTACTTGGGTTCTAACCTGTTGCTA (site CCGTCTACTAA)” and “CCGTCTACTTGGGTTCTAACCTGTTGCTA (site CCGTCTACTCA)” are within 0.2 log units of each other in “recombinant barcode read abundance (log10)” value: 0.02 for the first, 0.161 for the second.

“CCGTCTACTTGGGTTCTAACCTGTTGCTA (site CCGTCTACTGA)” and “CCGTCTACTTGGGTTCTAACCTGTTGCTA (site CCGTCTACTTA)” are within 0.2 log units of each other in “recombinant barcode read abundance (log10)” value: 0.125 for the first, 0.259 for the second.

Compared with “CCGTGCCCTTGGGTTCTAACCTGTTGCGT (site CCGTGCCCTAC)”, “CCGTGCCCTTGGGTTCTAACCTGTTGCGT (site TCGTGCCCTAC)” is lower in “recombinant barcode read abundance (log10)” value: 1.92 for the first, 0.0224 for the second.

First: CCGTGCCCTTGGGTTCTAACCTGTTGCTG (site CCGGACCCTCA)
Second: CCGTGCCCTTGGGTTCTAACCTGTTGCTG (site CCGTGCCCTCA)
The “recombinant barcode read abundance (log10)” value of the first is lower: 0.111 for the first, 1.62 for the second.

“CCTAAAACTTGGGTTCTAACCTGTTGCCT (site CCTAAAACTAG)” and “CCTAAAACTTGGGTTCTAACCTGTTGCCT (site GAACTCTCTTA)” are within 0.2 log units of each other in “recombinant barcode read abundance (log10)” value: 0.0998 for the first, 0.0257 for the second.

First: CCTAACCCTTGGGTTCTAACCTGTTGCGT (site CCTAAACCTAC)
Second: CCTAACCCTTGGGTTCTAACCTGTTGCGT (site CCTAACCCTAC)
The “recombinant barcode read abundance (log10)” value of the first is lower: 0.39 for the first, 1.85 for the second.
